“Also recorded” adds a separate entry of the source.
How the values were obtained:
[1] = tested on: Neurospheres transfected with MYC; assay: Cell cycle analysis (sub 2N population, flow cytometry); type: cell-based, human; settings: 3 days of treatment, propidium iodide flow cytometry
Protocol: (§1) FIG. 7: Cell cycle analysis was performed using a Guava flow cytometer following 3 days of treatment in acivicin. Neurospheres transfected with MYC show an increase in the sub 2N population following 3 days of treatment with acivicin, indicating an increase in apoptosis after treatment.
(§2) We also asked this question using human neural stem cell models of aggressive brain tumors. We compared the sensitivity of human neural stem cells transduced with a package of oncogenes that contain MYC versus those that were transformed without using MYC.

[2] = tested on: non-MYC transformed neurospheres; assay: as above; type: cell-based, human; settings: 3 days of treatment, propidium iodide flow cytometry
Protocol: as §1, §2

[3] = tested on: UW228 (low-MYC medulloblastoma cell line); assay: MTS cell growth assay; type: cell-based, human; settings: UW228, 3 days of treatment at increasing concentrations
Protocol: (§3) FIG. 4: Growth as measured by MTS assay after 3 days of acivicin treatment at increasing doses. The low-MYC cell line, UW228 (FIG. 4A), is not sensitive to treatment with acivicin. The high-MYC cell lines, D283 (FIG. 4B) and D425 (FIG. 4C) are sensitive to acivicin, showing an inhibition of growth of approximately 50% or more at a concentration of 10 uM acivicin.
(§4) For relative cell growth assays, cells were seeded in 96-well plates in triplicate at densities of 5000 cells per well. Cell proliferation was monitored at the indicated number of days using the colorimetric CellTiter 96 MTS assay (Promega, Madison, Wis.).
(§5) We tested this hypothesis using UW228 (low MYC) and D283 and D425 (high MYC) medulloblastoma cell lines.

[4] = tested on: D283Med xenografts; assay: D283Med orthotopic and flank xenografts in nude mice; type: in vivo; settings: IP 75 mg/kg acivicin 4 times a week, four weeks
Protocol: FIG. 13: Mice treated with Acivicin develop fewer and smaller flank tumors than untreated mice. Ten immunodeficient (nude) mice received orthotopic and flank xenografts of D283Med. Mice in the treatment group (n=5) were treated 4 times a week with an IP dose of 75 mg/kg of acivicin each time. Mice in the control group (n=5) received an IP injection of sterile PBS. After four weeks, all mice were sacrificed and brains and any flank tumors removed. 100% of the control group developed flank tumors, while only 40% of the treatment group developed flank tumors. The PBS treated mice also developed larger flank tumors (A, bars indicate mean tumor size, error bars SD).

[5] = tested on: D283Med; assay: Sub-G1 (apoptotic) population by flow cytometry; type: cell-based, human
Excerpt: (§6) FIG. 11: Medulloblastoma cell lines expressing c-MYC and glutaminase (GLS) are sensitive to inhibitors of glutamine metabolism. c-MYC levels positively correlate with GLS levels in D425Med and D283Med (A) as indicated by western blot. The growth of D283Med (B) and D425Med (C) is inhibited when treated with DON or Acivicin as measured by MTS assay. […] Cells were fixed and stained with an anti-cleaved caspase-3 antibody followed by a Cy-3 conjugated secondary and a DAPI counterstain. Multiple images were taken of each treatment and Cy3 positive cells were counted using Adobe Photoshop. Representative images are in D. Acivicin and DON treatment cause an increase the in sub-G1 (apoptotic) population of D425Med (E) and D283Med (F) as measured by flow cytometry.

[6] = tested on: D425Med; assay: Sub-G1 (apoptotic) population by flow cytometry; type: cell-based, human
Excerpt: as §6

[7] = tested on: cortex derived neurospheres transduced with oncogenes not including MYC; assay: BrdU proliferation assay, PNET models; type: cell-based, human; settings: 10 uM acivicin, no MYC
Protocol: (§7) FIG. 10 A: Acivicin suppresses the growth of MYC containing human neural stem cell PNET models. Graph comparing percent BrdU positivity in mock treated (blue) and with 10 uM acivicin (red) treated cells. […] FIG. 10 B: Acivicin suppresses the growth of MYC containing human neural stem cell PNET models. The graph compares percent BrdU positivity in mock treated (blue) and with 10 uM DON (red) treated cells.
(§8) For measurement of proliferation, cells were treated with the indicated drug for 18 hours and were then pulsed with bromo-deoxyuridine for an additional 6 hours. Cells were triturated to single cells and then cytospun onto microscope slides. After washing cells once with PBS, they were fixed with 4% paraformaldehyde for 15 minutes, permeabilized with 0.1% Triton/PBS, denatured with 0.1N HCl for 15 minutes, then blocked with 5% normal goat serum/PBST or 5% BSA/PBST, and incubated with anti-BrdU (Sigma) antibody at 37 degrees for one hour. After washing three times with PBST, cells were incubated for 45 minutes in the dark with the appropriate Cy-2 or Cy-3 conjugated secondary antibody (Jackson Immunoresearch). […] Multiple high power fields were photographed at random, and the percent BrdU positivity was calculated by counting first BrdU positive cells and then DAPI positive cells and dividing the former by the latter. […]

[8] = tested on: KNS42 (low-MYC glioma cell line); assay: MTS cell growth assay; type: cell-based; settings: KNS42, 3 days, same concentrations as SF188 and UW479
Protocol: FIG. 9: MTS assay showing sensitivity of high MYC SF188 and […] glioma cell lines and insensitivity of low-MYC KNS42 to glutamine metabolic inhibitors DON and acivicin. Cell growth was measured over 3 days at increasing concentrations of drug.
as §4

[9] = tested on: D283 (D283Med, high-MYC medulloblastoma cell line); assay: MTS cell growth assay; type: cell-based, human; settings: for growth as measured by MTS assay: D283 / D283Med, increasing concentrations
Protocol: as §3, §6, §4, §5

[10] = tested on: D425 (D425Med, high-MYC medulloblastoma cell line); assay: MTS cell growth assay; type: cell-based, human; settings: for growth as measured by MTS assay: D425 / D425Med, increasing concentrations
Protocol: as §3, §6, §4, §5

[11] = tested on: UW228 cells engineered to express MYC (UW228-UWM13); assay: MTS cell growth assay; type: cell-based, human; settings: 3 days of drug treatment
Protocol: Values show mean (n=3) and error bars indicated standard deviation. FIG. 5B: The percent decrease in optical density between no drug and 50 uM acivicin. Error bars indicate SEM. *P=0.00029.
as §4
We next investigated if increasing MYC and GLS expression in a low MYC cell line could confer sensitivity to glutamine anti-metabolites.

[12] = tested on: MYC transduced cortex derived human neural stem cell PNET models; assay: BrdU proliferation assay, PNET models; type: cell-based; settings: FIG. 10A
Protocol: as §7, §8

[13] = tested on: Control cells (neural stem cells); assay: Cleaved caspase-3 staining (apoptosis); type: cell-based, human; settings: 72 h treatment
Protocol: (§9) Cells were treated with acivicin or DON for 72 h. The cells were then fixed and stained with an antibody for cleaved caspase-3, followed by a Cy-3 conjugated secondary and a DAPI counterstain. Multiple images were taken of each treatment and cleaved-caspase-3 positive cells counted using Adobe Photoshop. […] Control cells were unaffected by treatment. Representative images are seen in (B and D). Images colorized with Adobe Photoshop.

[14] = tested on: neural stem cell models of medulloblastoma; assay: Cleaved caspase-3 staining (apoptosis); type: cell-based, human; settings: 72 h treatment, p<0.05
Protocol: as §9

[15] = tested on: MYC-driven human neural stem cell models of medulloblastoma (cerebellar neurospheres); assay: BrdU proliferation assay; type: cell-based
Protocol: (§10) FIG. 6: Suppression of proliferation of MYC-driven human neural stem cell models of medulloblastoma by acivicin. Two human neurosphere lines were treated with 10 uM acivicin for four days. On the fourth day, the spheres were pulsed with BrdU for 6 h. Following the pulse, the spheres were made single cells and fixed onto glass slides. Staining was performed using an anti-BrdU antibody followed by a secondary antibody conjugated to Cy3 and a DAPI counterstain. Images were taken at 400× (FIG. 6A, top panel). DAPI positive and BrdU positive (red) cells in the image were counted using Adobe Photoshop (FIG. 6A, bottom panel). An average of % positive BrdU cells was taken from three images. Error bars indicate SEM. *p=0.012.
(§11) FIG. 14: Acivicin decreases proliferation in neural stem cell models of MYC-driven medulloblastoma. Human neural stem cells derived from the developing cerebellum were transduced with lentiviral vectors coding for oncogenic elements associated with high-risk, MYC-driven medulloblastoma. SV40 was used as a control to immortalize the cells. The transduced neural stem cells were treated with acivicin for 72 h, and pulsed with bromodeoxyuridine for the final 6 hours of treatment. Cells were fixed and stained with an anti-BrdU antibody followed by a Cy-3 conjugated secondary and a DAPI counterstain. Multiple images were taken of each treatment and BrdU positive cells were counted using Adobe Photoshop. […] Representative images are in B.
(§12) For measurement of proliferation, cells were treated with the indicated drug for 18 hours and were then pulsed with bromo-deoxyuridine for an additional 6 hours. Cells were triturated to single cells and then cytospun onto microscope slides. After washing cells once with PBS, they were fixed with 4% paraformaldehyde for 15 minutes, permeabilized with 0.1% Triton/PBS, denatured with 0.1N HCl for 15 minutes, then blocked with 5% normal goat serum/PBST or 5% BSA/PBST, and incubated with anti-BrdU (Sigma) antibody at 37 degrees for one hour. After washing three times with PBST, cells were incubated for 45 minutes in the dark with the appropriate Cy-2 or Cy-3 conjugated secondary antibody (Jackson Immunoresearch). Cells were counterstained with DAPI and mounted with anti-fade (Vectastain). Multiple high power fields were photographed at random, and the percent BrdU positivity was calculated by counting first BrdU positive cells and then DAPI positive cells and dividing the former by the latter.

[16] = tested on: human neural stem cells transformed without MYC (SV40 control); assay: BrdU proliferation assay; type: cell-based
Protocol: as §10, §11, §12

[17] = tested on: D425Med; assay: Cleaved caspase-3 immunofluorescence (apoptosis); type: cell-based, human; settings: n=3, p<0.05
Excerpt: as §6

[18] = administered orally at therapeutically effective levels; cited from earlier work
[19] = tested on: hindbrain derived neurospheres transduced with oncogenes not including MYC; assay: BrdU proliferation assay, PNET models; type: cell-based, human; settings: 10 uM DON, no MYC
Protocol: as §7, §8

[20] = tested on: MYC transduced hindbrain derived human neural stem cell PNET models; assay: BrdU proliferation assay, PNET models; type: cell-based; settings: FIG. 10B
Protocol: as §7, §8

[21] = 10 uM acivicin, four days, BrdU pulse 6 h

SMILES: N[C@H](C(=O)O)[C@@H]1CC(Cl)=NO1 [acivicin, (2S)-Amino[(5S)-3-chloro-4,5-dihydro-1,2-oxazol-5-yl]ethanoic acid]
- sub 2N population (apoptosis) [1]: increased apoptosis; also recorded: increase
- sub 2N population (apoptosis) [2]: did not show an increase; also recorded: do not show any increase
- growth as measured by MTS assay (sensitivity) [3]: relatively resistant; also recorded: virtually no suppression of growth; also recorded: not sensitive
- flank tumor size / tumor growth ([4]; vs PBS, 75 mg/kg): markedly smaller tumors; also recorded: inhibits tumor growth
- mice that developed flank tumors ([4]; control group 100%): 40%
- sub-G1 (apoptotic) population [5]: increase
- sub-G1 (apoptotic) population [6]: increase
- reduction in proliferation [7]: did not respond strongly; also recorded: modest reduction
- reduction in growth [8]: modest reduction
- growth as measured by MTS assay [9]: suppressed
- growth as measured by MTS assay ([9]; listed as Acivicin): inhibited
- inhibition at 10 µM ([9]; Homo sapiens, 72 h, D283, 10 uM acivicin, 3 days): ≥ 50%
- growth as measured by MTS assay [10]: suppressed
- growth as measured by MTS assay ([10]; listed as Acivicin): inhibited
- inhibition at 10 µM ([10]; Homo sapiens, D425 Med, 72 h, D425, 10 uM acivicin, 3 days): ≥ 50%
- growth compared to parental UW228 cells (MTS) [11]: decreased growth
- sensitivity of MYC driven PNET models [12]: sensitive
- apoptosis (cleaved-caspase-3 positive cells) [13]: unaffected
- apoptosis (cleaved-caspase-3 positive cells) [14]: significant increase in apoptosis
- reduction of proliferation (% BrdU positive cells) [15, 21]: ~30%
- growth after treatment (FIG. 6) ([15]; MYC-transformed human neural stem cells): decreased growth
- proliferation (BrdU positive cells) ([15]; acivicin 72 h, BrdU for the final 6 hours): significant decrease
- change in proliferation (% BrdU positive cells) [16, 21]: insensitive; also recorded: no change
- proliferation (BrdU positive cells) ([16]; SV40 control, acivicin 72 h, BrdU for the final 6 hours): no change
- apoptosis (cleaved caspase-3 immunofluorescence) [17]: increase apoptosis

SMILES: [N-]=[N+]=CC(=O)CC[C@H](N)C(=O)O [DON, 6-Diazo-5-oxo-L-norleucine]
- growth as measured by MTS assay (sensitivity) [3]: relatively resistant
- sub-G1 (apoptotic) population [5]: increase
- sub-G1 (apoptotic) population [6]: increase
- gastrointestinal (GI) toxicity [18]: results in gastrointestinal (GI) toxicity
- reduction in proliferation [19]: did not respond strongly; also recorded: slight reduction
- reduction in growth [8]: modest reduction
- growth as measured by MTS assay [9]: suppressed; also recorded: inhibited
- growth as measured by MTS assay [10]: suppressed; also recorded: inhibited
- sensitivity of MYC driven PNET models [20]: sensitive
- apoptosis (cleaved-caspase-3 positive cells) [13]: unaffected
- apoptosis (cleaved-caspase-3 positive cells) [14]: significant increase in apoptosis
- apoptosis (cleaved caspase-3 immunofluorescence) [17]: increase apoptosis
